Measurements taken from publication PMC4550221 (Bioorganic & medicinal chemistry, 2015).
Where a name gives a salt, the structure may show the parent alone. Read-outs that look alike come from different tables or passages of the source.

Experiments:
P. falciparum 3D7 [1] = assay: Inhibition of parasite growth in P. falciparum 3D7-infected red blood cells; type: cell-based, Plasmodium falciparum; conditions: for 3D7 potency described in words (relative to comparator): comparator 4e unless 4-series (4a); for fold reduction in 3D7 potency: relative to 4e (isopentyl R1); for fold loss in 3D7 potency: R8 changes relative to parent analog (4a series); for IC50: Plasmodium falciparum, 3D7, Erythrocyte
HepG2 cells = assay: HepG2 72 h cytotoxicity; conditions: HepG2 cytotoxicity vs antimalarial activity
HepG2 72 h cytotoxicity = conditions: human, HepG2 cells
P. falciparum 3D7 [2] = conditions: read-out: reported XC50; TCAMS screening dataset; cited from earlier work
Plasmodium = conditions: read-out: reported EC50; Novartis-GNF collection, GNF-Pf-5345; cited from earlier work
[3] = Rat PK experiment in vivo; conditions: iv, 1 mg/kg

With `CCN1C(=O)N(CCC(C)C)C2(CCN(Cc3cc(O)cc(Cl)c3)CC2)C1=O` [Compound 12a] the “3D7 potency described in words (relative to comparator)” value (P. falciparum 3D7 [1]) was “increasingly detrimental to 3D7 potency”.
In the case of `CCN1C(=O)N(CCC(C)C)C2(CCN(Cc3cc(Cl)cc(Cl)c3O)CC2)C1=O` [Compound 12j], the “3D7 potency described in words (relative to comparator)” value (P. falciparum 3D7 [1]) is reported as “equipotent”.
With `CCN1C(=O)N(CCC(C)C)C2(CCN(Cc3ccccc3O)CC2)C1=O` [Compound 4d] the “3D7 potency described in words (relative to comparator)” value (P. falciparum 3D7 [1]) was “did not have a significant impact on potency”.
With `CCN1C(=O)N(c2ccccc2)C2(CCN(Cc3cc(Cl)ccc3O)CC2)C1=O` [Compound 10d] the “3D7 potency described in words (relative to comparator)” value (P. falciparum 3D7 [1]) was “detrimental to potency”.
With `CCN1C(=O)N(CCC(C)C)C2(CCN(C(=O)c3cc(Cl)ccc3O)CC2)C1=O` [Compound 12m] the “3D7 potency described in words (relative to comparator)” value (P. falciparum 3D7 [1]) was “lack of 3D7 potency”.
With `CCN1C(=O)N(CCC(C)C)C2(CCN(Cc3c(O)cccc3Cl)CC2)C1=O` [Compound 12g] the “3D7 potency described in words (relative to comparator)” value (P. falciparum 3D7 [1]) was “essentially equipotent”.
For `CCN1C(=O)NC2(CCN(Cc3cc(Cl)ccc3O)CC2)C1=O` [Compound 10a], the “fold reduction in 3D7 potency” value (P. falciparum 3D7 [1]) was no less than 20 fold.
In the case of `CCN1C(=O)N(Cc2ccccc2)C2(CCN(Cc3cc(Cl)ccc3O)CC2)C1=O` [Compound 10e], the “3D7 potency described in words (relative to comparator)” value (P. falciparum 3D7 [1]) is reported as “roughly equipotent”.
With `CCN1C(=O)N(CCC(C)C)C2(CCN(Cc3cccc(Cl)c3)CC2)C1=O` [Compound 4f] the “fold loss in 3D7 potency” value (P. falciparum 3D7 [1]) was 8- to 60 fold.
In the case of `CCN1C(=O)N(Cc2ccc(OC)cc2)C2(CCN(Cc3cc(Cl)ccc3O)CC2)C1=O` [Compound 10g], the “3D7 potency described in words (relative to comparator)” value (P. falciparum 3D7 [1]) is reported as “tolerated with some modest effects on potency”.
With `CCN1C(=O)N(CCC(C)C)C2(CCN(Cc3cc(Cl)c(Cl)cc3O)CC2)C1=O` [Compound 12k] the IC50 (P. falciparum 3D7 [1]; read-out: IC50 in P. falciparum 3D7 infected erythrocytes, 3D7 (chloroquine-sensitive) strain) was 0.099 µM, the selectivity index (HepG2 cells) was “greater than 500” and the IC50 at 72 h (HepG2 72 h cytotoxicity) was greater than 50 µM.
Compound `CCN1C(=O)N(CCC(C)C)C2(CCN(Cc3cc(-c4ccccc4)ccc3O)CC2)C1=O` [Compound 12f] has an IC50 at 72 h (HepG2 72 h cytotoxicity) greater than 50 µM.
In the case of `CCN1C(=O)N(CCC(C)C)C2(CCN(Cc3ccc(OC)cc3O)CC2)C1=O` [Compound 4a], the IC50 (P. falciparum 3D7 [2]) is listed as 0.84 µM.
With `CCN1C(=O)N(CCC(C)C)C2(CCN(Cc3ccc(Cl)cc3O)CC2)C1=O` [Compound 12h] the “3D7 potency described in words (relative to comparator)” value (P. falciparum 3D7 [1]) was “three- to seven-fold less potent” and the IC50 at 72 h (HepG2 72 h cytotoxicity) was greater than 50 µM.
In the case of `CC(C)CCN1C(=O)NC(=O)C12CCN(Cc1cc(Cl)ccc1O)CC2` [Compound 11a], the “3D7 potency described in words (relative to comparator)” value (P. falciparum 3D7 [1]) is reported as “dramatic loss in activity”.
In the case of `CCN1C(=O)N(CC)C2(CCN(Cc3cc(Cl)ccc3O)CC2)C1=O` [Compound 10b], the “fold reduction in 3D7 potency” value (P. falciparum 3D7 [1]) is reported as no less than 20 fold.
With `CCN1C(=O)N(CCc2ccccc2)C2(CCN(Cc3cc(Cl)ccc3O)CC2)C1=O` [Compound 10f] the “3D7 potency described in words (relative to comparator)” value (P. falciparum 3D7 [1]) was “roughly equipotent”.
In the case of `CCN1C(=O)N(CCC(C)C)C2(CCN(Cc3cccc4cc[nH]c34)CC2)C1=O` [Compound 12u], the “3D7 potency described in words (relative to comparator)” value (P. falciparum 3D7 [1]) is reported as “hint of potency”.
With `CCN1C(=O)N(Cc2ccc(C#N)cc2)C2(CCN(Cc3cc(Cl)ccc3O)CC2)C1=O` [Compound 10h] the “3D7 potency described in words (relative to comparator)” value (P. falciparum 3D7 [1]) was “tolerated with some modest effects on potency”.
In the case of `CCN1C(=O)N(C2CCCC2)C2(CCN(Cc3cc(Cl)ccc3O)CC2)C1=O` [Compound 10c], the “3D7 potency described in words (relative to comparator)” value (P. falciparum 3D7 [1]) is reported as “well tolerated”.
With `CC(C)CCN1C(=O)N(C(C)C)C(=O)C12CCN(Cc1cc(Cl)ccc1O)CC2` [Compound 11b] the “3D7 potency described in words (relative to comparator)” value (P. falciparum 3D7 [1]) was “improved potency three-fold”.
In the case of `CCN1C(=O)N(CCC(C)C)C2(CCN(Cc3cc(Br)ccc3O)CC2)C1=O` [Compound 12d], the “3D7 potency described in words (relative to comparator)” value (P. falciparum 3D7 [1]) is reported as “well tolerated”.
In the case of `CCN1C(=O)N(CCC(C)C)C2(CCN(Cc3cc(Cl)ccc3O)CC2)C1=O` [Compound 4e, 8-(5-chloro-2-hydroxybenzyl)-3-ethyl-1-isopentyl-1,3,8-triazaspiro[4.5]decane-2,4-dione hydrochloride], the IC50 (P. falciparum 3D7 [1]; read-out: IC50 in P. falciparum 3D7 infected erythrocytes) is given as 0.31 µM, the “3D7 potency described in words (relative to comparator)” value (P. falciparum 3D7 [1]) is given as “about a five-fold improvement in potency” and the EC50 (Plasmodium) is given as 0.349 µM. It also gave a clearance [3] of 152 mL/min/kg and a selectivity index (HepG2 cells) greater than 100.
In the case of `CCN1C(=O)N(CCC(C)C)C2(CCN(Cc3cccc(OC)c3O)CC2)C1=O` [Compound 4b], the “fold loss in 3D7 potency” value (P. falciparum 3D7 [1]) is reported as 6 fold.
For `CCN1C(=O)N(CCC(C)C)C2(CCN(Cc3ccc(OC)cc3OC)CC2)C1=O` [Compound 4g], the “fold loss in 3D7 potency” value (P. falciparum 3D7 [1]) was 8- to 60 fold.
For `CC(C)CCN1C(=O)N(Cc2cccnc2)C(=O)C12CCN(Cc1cc(Cl)ccc1O)CC2` [Compound 11c], the “3D7 potency described in words (relative to comparator)” value (P. falciparum 3D7 [1]) was “modest two-three-fold losses of potency”.
In the case of `CC(C)CCN1C(=O)N(CCCc2ccncc2)C(=O)C12CCN(Cc1cc(Cl)ccc1O)CC2` [Compound 11d], the “3D7 potency described in words (relative to comparator)” value (P. falciparum 3D7 [1]) is reported as “modest two-three-fold losses of potency”.
